Assay [1] can be described thus: HEp-2 cell cytotoxicity, dose response, cytotoxicity control for RSV inhibitor project, HTS (AID 2410). It counts as functional. The following applies: human respiratory syncytial virus.
Another assay deals with Bcl-2-like protein 10 (Homo sapiens, UniProt Q9HD36). The assay can be described thus: displacers of TR3 peptide from Bcl-B, primary screen, selectivity assay for Bfl-1 inhibitor project, biochemical, fluorescence polarization, FITC-TR3 peptide (AID 748). A general note: Fluorescence polarisation rises when a labelled molecule tumbles more slowly, as on binding a larger partner.

Assay [2] can be described thus: inhibitors of SNCA 5'UTR-driven reporter translation, confirmation, H4 neuroglioma cells, luminescence (AID 1988). The class given is functional, cell-based.
Assay [3] is described as follows: inhibitors of firefly luciferase expression or activity, dose response, H4 neuroglioma cells, luminescence (AID 1990). The class given is functional, cell-based.
The target of assay [4] is Protein-tyrosine kinase 2-beta (Homo sapiens, UniProt Q14289).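 Further: potency of inhibitors of PYK2 kinase phosphorylation of poly-GT substrate.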
Assay [5] is described as follows: Luminescence-based counterscreen assay for KLF5 inhibitors: dose response cell-based high throughput screening assay to identify cytotoxic compounds using the IEC-6 intestinal epithelial cell line. [Related pubchem assays: 1700 (Primary screen.), 1834 (Confirmation screen.), 1858 (Summary AID.), 1905 (Counterscreen.)]. It counts as functional.
The target of the next assay is T1, Streptokinase A (Streptococcus pyogenes serotype M1, UniProt P10520).
T1 sequence (P10520 whole entry): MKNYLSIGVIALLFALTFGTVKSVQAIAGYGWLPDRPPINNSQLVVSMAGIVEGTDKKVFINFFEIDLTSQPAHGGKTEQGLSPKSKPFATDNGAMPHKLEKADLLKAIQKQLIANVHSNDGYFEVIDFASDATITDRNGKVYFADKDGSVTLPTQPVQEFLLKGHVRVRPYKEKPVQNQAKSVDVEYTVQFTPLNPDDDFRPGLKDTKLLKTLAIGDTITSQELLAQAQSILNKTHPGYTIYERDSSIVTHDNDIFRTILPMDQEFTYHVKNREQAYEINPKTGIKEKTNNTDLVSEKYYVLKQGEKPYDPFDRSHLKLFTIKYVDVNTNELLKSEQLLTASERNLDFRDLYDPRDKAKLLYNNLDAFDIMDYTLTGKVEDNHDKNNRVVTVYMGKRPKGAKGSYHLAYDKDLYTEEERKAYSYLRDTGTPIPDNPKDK
Description: S. pyogenes streptokinase expression inhibitors, potency, dose response, plasminogen activation absorbance, OD405 (AID 1914).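 Further: secreted streptokinase activity via plasminogen activation per viability signal from cell pellet.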 It counts as functional, Streptococcus pyogenes M1 GAS.

In the next assay the test system is Streptococcus. The assay can be described thus: Group A Streptococcus viability loss, dose response, counter-screen for streptokinase expression inhibitor project, luminescence, BacTiterGlo (AID 1915).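 Further: potency for reduction of bacterial viability or growth.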 It counts as functional, organism-based. On the technique in general: The purpose of a counterscreen is to sort out artefacts and off-target activity.
Assay [6] concerns Streptococcus sp. 'group A'. Description: growth inhibition of control SK(-) GAS strain, dose response, counter-screen for streptokinase expression inhibitor project, luminescence, kanamycin, BacTiterGlo, confirmation (AID 1900). The class given is functional, organism-based.
The next assay concerns the target X-box-binding protein 1 (Homo sapiens, UniProt P17861). It counts as functional, Cricetulus griseus.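 Further: confirmatory dose-response counter-screen serving a CHOP assay.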
The next assay deals with Cytochrome P450 2C9 (Homo sapiens, UniProt P11712). The following applies: Potency.
Assay [7] addresses T2, Hepatocyte nuclear factor 4-alpha (Homo sapiens, UniProt P41235).
T2 sequence (P41235 whole entry): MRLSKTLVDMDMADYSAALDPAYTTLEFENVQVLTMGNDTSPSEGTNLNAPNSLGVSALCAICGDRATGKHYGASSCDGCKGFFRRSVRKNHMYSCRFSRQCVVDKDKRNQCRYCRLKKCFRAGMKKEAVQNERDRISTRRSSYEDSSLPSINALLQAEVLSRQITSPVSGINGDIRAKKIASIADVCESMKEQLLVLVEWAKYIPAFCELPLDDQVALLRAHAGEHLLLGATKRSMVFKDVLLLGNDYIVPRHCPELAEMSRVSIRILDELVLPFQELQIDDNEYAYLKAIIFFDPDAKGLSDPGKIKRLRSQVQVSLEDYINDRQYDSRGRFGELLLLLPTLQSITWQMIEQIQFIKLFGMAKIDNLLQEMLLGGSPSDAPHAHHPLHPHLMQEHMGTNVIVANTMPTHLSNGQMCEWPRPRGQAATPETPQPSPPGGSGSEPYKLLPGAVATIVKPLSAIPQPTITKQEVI
It counts as functional, cell-based.

Assay [8] has as its target Glucose-6-phosphate 1-dehydrogenase (Homo sapiens, UniProt P11413). The assay can be described thus: human G6PD enzyme inhibitors, dose response, selectivity assay for P. falciparum G6PD inhibitor project, biochemical, fluorescence (AID 504792). The class given is functional.
A further assay has as its target T3, Hexokinase HKDC1 (Homo sapiens, UniProt Q2TB90).
T3 sequence (Q2TB90 whole entry): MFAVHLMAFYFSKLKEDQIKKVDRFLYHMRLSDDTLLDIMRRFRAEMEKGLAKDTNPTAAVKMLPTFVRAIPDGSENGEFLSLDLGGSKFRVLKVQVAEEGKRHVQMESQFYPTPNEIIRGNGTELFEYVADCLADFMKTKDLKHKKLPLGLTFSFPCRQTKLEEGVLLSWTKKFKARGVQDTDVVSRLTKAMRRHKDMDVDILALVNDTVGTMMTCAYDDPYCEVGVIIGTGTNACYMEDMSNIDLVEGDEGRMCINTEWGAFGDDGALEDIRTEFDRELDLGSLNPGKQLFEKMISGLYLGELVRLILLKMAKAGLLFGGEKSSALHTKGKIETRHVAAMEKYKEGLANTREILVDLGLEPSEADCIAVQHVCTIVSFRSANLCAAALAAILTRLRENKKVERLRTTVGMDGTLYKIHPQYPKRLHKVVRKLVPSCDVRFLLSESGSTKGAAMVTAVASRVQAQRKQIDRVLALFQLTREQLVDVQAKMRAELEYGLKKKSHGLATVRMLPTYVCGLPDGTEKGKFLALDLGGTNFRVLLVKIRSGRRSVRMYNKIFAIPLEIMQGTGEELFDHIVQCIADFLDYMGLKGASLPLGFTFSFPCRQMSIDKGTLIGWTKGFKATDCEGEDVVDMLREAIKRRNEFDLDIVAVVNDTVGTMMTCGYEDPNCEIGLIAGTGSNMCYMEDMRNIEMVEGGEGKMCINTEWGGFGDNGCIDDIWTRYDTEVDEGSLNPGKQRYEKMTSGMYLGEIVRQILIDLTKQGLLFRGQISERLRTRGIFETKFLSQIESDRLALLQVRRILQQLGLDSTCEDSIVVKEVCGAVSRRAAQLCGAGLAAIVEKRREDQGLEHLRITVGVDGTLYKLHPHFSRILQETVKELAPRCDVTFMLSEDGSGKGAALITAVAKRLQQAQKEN
The assay can be described thus: HKDC1 hexokinase inhibitors, dose response, biochemical, W721R variant (AID 504729). The class given is functional.

Assay [9] deals with Neurotensin receptor type 1 (Homo sapiens, UniProt P30989). It counts as functional.
Assay [10] can be described thus: Luminescence Cell-Based Dose Response HTS to Identify Inhibitors of 5'UTR Stem-Loop Driven Prion Protein mRNA Translation in H4 Neuroglioblastoma Cells. [Related pubchem assays: 1827 (Project Summary), 1813 (Primary HTS)]. The class given is functional.
Assay [11] addresses Luciferin 4-monooxygenase (Photinus pyralis, UniProt P08659). Description: firefly luciferase enzyme inhibitors, dose response, biochemical, luminescence (AID 1891).
The target in assay [12] is T4, Heat shock factor protein 1 (Mus musculus, UniProt P38532).
T4 sequence (P38532 whole entry): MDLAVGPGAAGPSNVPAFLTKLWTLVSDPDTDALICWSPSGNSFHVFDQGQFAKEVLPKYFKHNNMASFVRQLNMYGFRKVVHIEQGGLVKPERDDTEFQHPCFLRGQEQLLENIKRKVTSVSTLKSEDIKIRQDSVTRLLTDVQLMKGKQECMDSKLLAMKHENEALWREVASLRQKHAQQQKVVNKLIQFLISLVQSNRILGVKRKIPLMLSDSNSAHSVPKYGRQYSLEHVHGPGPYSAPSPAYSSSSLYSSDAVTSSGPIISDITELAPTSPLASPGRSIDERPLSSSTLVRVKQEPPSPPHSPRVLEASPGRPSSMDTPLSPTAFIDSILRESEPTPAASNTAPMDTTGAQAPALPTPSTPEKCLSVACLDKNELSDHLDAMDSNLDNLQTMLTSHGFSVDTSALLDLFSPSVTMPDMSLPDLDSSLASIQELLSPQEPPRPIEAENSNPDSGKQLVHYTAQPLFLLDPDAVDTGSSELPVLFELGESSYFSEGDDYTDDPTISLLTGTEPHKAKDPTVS
Description: inhibition of MG132-induced HSE-luciferase signal, confirmation, cell-based, NIH3T3, luminescence, dose retest (AID 2382).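 Further: NIH3T3 fibroblasts with HSF1-driven luciferase reporter stressed by proteasome inhibitor MG132; luminescence from HSF1-driven luciferase expression after 8 hours of MG132 stress.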 The class given is functional.

The nature of assay [13]: Luminescence Cell-Based Dose Confirmation HTS to Identify Inhibitors of Platelet Dense Granule Release. [Related pubchem assays: 1663 (Primary HTS), 1678 (Summary of Project)]. It counts as functional.

The source made the active and inactive calls. A value given as a limit tells only on which side of the number the result lay.

Neurotensin receptor type 1, sequence (P30989 whole entry): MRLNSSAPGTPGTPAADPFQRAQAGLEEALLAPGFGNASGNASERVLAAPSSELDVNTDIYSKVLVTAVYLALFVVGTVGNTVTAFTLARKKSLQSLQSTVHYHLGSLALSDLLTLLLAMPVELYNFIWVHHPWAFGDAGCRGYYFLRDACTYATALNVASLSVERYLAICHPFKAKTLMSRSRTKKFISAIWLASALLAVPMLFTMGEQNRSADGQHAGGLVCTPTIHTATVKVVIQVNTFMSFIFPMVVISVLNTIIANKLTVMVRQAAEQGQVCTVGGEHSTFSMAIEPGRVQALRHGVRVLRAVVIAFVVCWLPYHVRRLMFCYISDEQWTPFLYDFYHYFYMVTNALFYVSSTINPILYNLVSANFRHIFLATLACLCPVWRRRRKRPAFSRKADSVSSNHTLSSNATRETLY
Cytochrome P450 2C9, sequence (P11712 whole entry): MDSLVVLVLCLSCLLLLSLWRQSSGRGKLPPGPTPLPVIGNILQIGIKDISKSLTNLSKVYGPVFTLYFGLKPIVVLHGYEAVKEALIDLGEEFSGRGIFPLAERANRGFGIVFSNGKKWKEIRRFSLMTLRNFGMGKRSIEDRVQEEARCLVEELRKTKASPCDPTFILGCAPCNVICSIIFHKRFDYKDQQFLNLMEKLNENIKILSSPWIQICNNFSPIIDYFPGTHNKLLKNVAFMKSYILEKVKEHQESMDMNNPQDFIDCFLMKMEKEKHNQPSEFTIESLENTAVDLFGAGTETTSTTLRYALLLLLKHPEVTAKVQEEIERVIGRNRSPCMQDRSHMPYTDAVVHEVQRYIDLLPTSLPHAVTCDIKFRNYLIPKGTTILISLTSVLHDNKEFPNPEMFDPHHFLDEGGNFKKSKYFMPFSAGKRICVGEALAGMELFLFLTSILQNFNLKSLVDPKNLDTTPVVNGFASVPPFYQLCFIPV
Glucose-6-phosphate 1-dehydrogenase, sequence (P11413 whole entry): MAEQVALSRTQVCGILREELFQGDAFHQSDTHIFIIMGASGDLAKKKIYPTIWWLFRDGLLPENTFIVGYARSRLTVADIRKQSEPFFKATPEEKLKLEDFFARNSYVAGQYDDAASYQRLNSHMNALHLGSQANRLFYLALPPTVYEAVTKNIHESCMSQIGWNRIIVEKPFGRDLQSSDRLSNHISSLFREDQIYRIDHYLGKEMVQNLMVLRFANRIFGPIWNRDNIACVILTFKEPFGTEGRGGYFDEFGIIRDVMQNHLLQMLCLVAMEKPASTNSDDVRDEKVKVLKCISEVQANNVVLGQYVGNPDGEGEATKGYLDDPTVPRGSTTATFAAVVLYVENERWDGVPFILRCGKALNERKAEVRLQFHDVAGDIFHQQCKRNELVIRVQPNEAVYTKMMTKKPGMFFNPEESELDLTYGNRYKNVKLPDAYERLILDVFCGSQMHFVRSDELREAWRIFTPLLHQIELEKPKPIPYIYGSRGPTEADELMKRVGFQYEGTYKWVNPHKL
X-box-binding protein 1, sequence (P17861 whole entry): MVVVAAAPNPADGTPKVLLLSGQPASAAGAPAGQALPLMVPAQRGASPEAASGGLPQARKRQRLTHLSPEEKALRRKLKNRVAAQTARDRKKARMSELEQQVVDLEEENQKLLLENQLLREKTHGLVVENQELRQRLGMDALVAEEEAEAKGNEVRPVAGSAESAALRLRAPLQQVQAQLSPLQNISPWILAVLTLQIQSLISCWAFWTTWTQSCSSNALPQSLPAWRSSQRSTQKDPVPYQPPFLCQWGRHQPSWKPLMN
Protein-tyrosine kinase 2-beta, sequence (Q14289 whole entry): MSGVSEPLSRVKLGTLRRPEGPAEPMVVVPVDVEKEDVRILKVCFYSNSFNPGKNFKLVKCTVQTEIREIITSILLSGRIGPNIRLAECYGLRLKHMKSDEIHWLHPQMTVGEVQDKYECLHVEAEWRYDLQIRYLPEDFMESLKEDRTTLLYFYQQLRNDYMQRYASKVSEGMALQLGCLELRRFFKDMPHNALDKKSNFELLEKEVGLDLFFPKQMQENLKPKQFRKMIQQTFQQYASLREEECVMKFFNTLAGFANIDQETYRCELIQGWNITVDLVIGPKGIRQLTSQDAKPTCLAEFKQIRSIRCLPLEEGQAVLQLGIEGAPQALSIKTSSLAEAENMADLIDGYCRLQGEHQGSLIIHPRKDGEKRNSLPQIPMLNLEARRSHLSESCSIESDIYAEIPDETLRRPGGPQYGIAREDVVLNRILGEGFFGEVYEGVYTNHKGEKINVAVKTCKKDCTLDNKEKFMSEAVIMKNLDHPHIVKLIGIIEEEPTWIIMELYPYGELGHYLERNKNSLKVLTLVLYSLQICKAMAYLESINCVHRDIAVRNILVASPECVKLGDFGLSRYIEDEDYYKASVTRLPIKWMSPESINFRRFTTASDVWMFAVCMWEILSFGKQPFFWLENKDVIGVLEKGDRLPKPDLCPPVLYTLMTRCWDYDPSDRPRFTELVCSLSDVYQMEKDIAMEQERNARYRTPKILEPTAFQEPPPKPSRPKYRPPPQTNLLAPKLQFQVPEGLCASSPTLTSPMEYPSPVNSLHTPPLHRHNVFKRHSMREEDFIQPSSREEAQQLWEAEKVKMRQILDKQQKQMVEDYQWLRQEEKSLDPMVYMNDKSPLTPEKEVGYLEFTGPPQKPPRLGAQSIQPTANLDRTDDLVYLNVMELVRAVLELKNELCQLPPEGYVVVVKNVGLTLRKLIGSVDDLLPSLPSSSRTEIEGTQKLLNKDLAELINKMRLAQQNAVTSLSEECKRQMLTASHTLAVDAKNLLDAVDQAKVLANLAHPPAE
Luciferin 4-monooxygenase, sequence (P08659 whole entry): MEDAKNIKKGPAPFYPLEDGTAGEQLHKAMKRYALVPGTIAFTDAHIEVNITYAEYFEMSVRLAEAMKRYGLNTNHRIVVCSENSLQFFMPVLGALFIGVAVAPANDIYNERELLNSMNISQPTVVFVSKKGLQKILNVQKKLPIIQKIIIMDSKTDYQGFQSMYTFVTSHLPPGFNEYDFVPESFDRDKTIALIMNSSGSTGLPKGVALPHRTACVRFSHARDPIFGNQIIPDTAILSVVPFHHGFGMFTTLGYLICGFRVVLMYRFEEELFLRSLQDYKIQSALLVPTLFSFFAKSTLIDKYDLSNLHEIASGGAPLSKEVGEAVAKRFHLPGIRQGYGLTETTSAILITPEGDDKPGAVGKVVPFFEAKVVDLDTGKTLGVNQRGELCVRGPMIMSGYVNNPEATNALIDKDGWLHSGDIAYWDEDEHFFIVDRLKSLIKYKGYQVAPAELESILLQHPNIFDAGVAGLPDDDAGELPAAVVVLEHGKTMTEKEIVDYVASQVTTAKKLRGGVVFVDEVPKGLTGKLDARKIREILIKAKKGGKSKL
Bcl-2-like protein 10, sequence (Q9HD36 whole entry): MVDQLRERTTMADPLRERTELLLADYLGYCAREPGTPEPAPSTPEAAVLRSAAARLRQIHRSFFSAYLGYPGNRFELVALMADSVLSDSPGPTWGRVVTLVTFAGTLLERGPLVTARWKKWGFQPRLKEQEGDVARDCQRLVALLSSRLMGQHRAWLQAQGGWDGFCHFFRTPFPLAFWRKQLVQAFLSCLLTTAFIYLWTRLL

In general, IC50 refers to the midpoint of a concentration-inhibition curve. Usually CC50 stands for the concentration at which the toxic effect on the cells reaches its halfway point. As to `Cc1cc(Cl)cc(C)c1OCCn1ccnc1`, the IC50 in “cells” was 32.9 µM (active). Moreover, the CC50 in assay [1] was 33.5 µM (active).

For the compound `O=c1c([N+](=O)[O-])cc(C(F)(F)F)cn1Cc1cccc(Cl)c1`, the IC50 at Bcl-2-like protein 10 is > 100 µM (inactive).

As to `O=C(c1ccc(F)cc1)N1CCN2C(=O)c3ccccc3C12c1ccccc1` (stereo unspecified), in “cells”, the IC50 is 31.2 µM (active).

In general, EC50 refers to the concentration giving half of the maximal effect. Regarding `COc1cc(/N=C/c2c(O)[nH]c3ccccc23)cc(OC)c1OC`, the EC50 in assay [2] is 0.108 µM (active); in assay [3] it was < 0.1 µM (active). The IC50 in [4] was 3.15 µM (active); in [5], > 39.8 µM (not active).

For the compound `COC(=O)C(Nc1ccccc1Cl)(c1cc(C)c(O)c(C)c1)C(F)(F)F` (stereo unspecified), the EC50 was 17.2 µM (active) on Streptokinase A, 9.48 µM (active) in the assay with Streptococcus and 1.58 µM (active) in [6]. Besides, the “Absolute IC50 (XBP1)” value at X-box-binding protein 1 was less than 10 µM.

For orientation: AC50 means the concentration giving half of the maximal activity seen. Consider `CC(C)C[C@@H](CC(=O)N[C@@H](CCC(=O)O)CC(=O)O)NC(=O)[C@@H]1CCCC[C@H]1NC(=O)C[C@@H](NC(=O)C[C@H](CO)NC(=O)[C@@H]1CCCC[C@H]1N)C(C)C`, for which, on Cytochrome P450 2C9, the AC50 is 20 µM (inconclusive).

Take `CC(=O)OCC1OC(C#Cc2ccc(C(C)(C)C)cc2)C=CC1OC(C)=O` (stereo unspecified): the AC50 at Cytochrome P450 2C9 is 6.31 µM (inconclusive).

As for `Cc1ccc(SC2=C(Sc3ccc(C)cc3)C(=O)c3ccccc3C2=O)cc1`, the results for the 50% inhibitory concentration (IC50) (in [7]; in assay [8]; at Hexokinase HKDC1) were 1.38 µM (active), > 80 µM (inactive) and 15.9 µM (active), respectively.

As for `COC(=O)COc1ccc(/C=N/NC(=O)CN(c2ccccc2OC)S(=O)(=O)c2ccccc2)cc1`, the EC50 in [9] is 6.65 µM (active).

For `COc1ccc(-n2ncc3c(N4CCN(Cc5ccccc5)CC4)ncnc32)cc1`, in assay [9], the EC50 was 35.9 µM (inactive).

For `COc1ccc(OC)c(N/C=C/C(=O)c2ccccc2)c1`, the EC50 in assay [2] was 3.8 µM (active); in assay [10], 1.35 µM (active); in [11] it was 0.276 µM (active); in assay [3] it was 6.32 µM (inconclusive); in assay [12], 0.476 µM (inconclusive); in assay [13], 0.982 µM (active). For the same compound, in assay [5], the IC50 is listed as > 39.8 µM (not active).
